The record followed here is ChEMBL document CHEMBL5321208, “The effect of side chain variations on quinazoline-pyrimidine G-quadruplex DNA ligands” (Eur J Med Chem, 2023).

SMILES strings stand for the structures. The source made the active and inactive calls. The calls are words filed in the database; no cut-off is given here. Where only a bound is given, the exact number is not on record here.

For data set [1], the system named is Quadruplex DNA. The data set can be described thus: Binding affinity to FAM/TAMRA-labelled parallel c-MYC Pu24T G4 DNA (unknown origin) assessed as thermal stabilization at 1 to 8 uM measured at 10 to 95 degreeC by FRET analysis. It is filed as nucleic-acid assay. Particulars: dose 1-8 µM.
The test system of another data set is dsDNA. Nature of the data set: Binding affinity to double stranded DNA (unknown origin) assessed as thermal stabilization at 1 to 8 uM measured at 10 to 95 degreeC by FRET analysis. It is filed as nucleic-acid assay. Particulars: dose 1-8 µM.
The test system of data set [2] is Quadruplex DNA. Nature of the data set: Binding affinity to FAM/TAMRA-labelled parallel KRAS G4 DNA (unknown origin) assessed as thermal stabilization at 1 to 8 uM measured at 10 to 95 degreeC by FRET analysis. Particulars: dose 1-8 µM. It is filed as nucleic-acid assay.
The subject of data set [3] is Quadruplex DNA. Nature of the data set: Binding affinity to FAM/TAMRA-labelled 21g G4 DNA (unknown origin) assessed as thermal stabilization at 1 to 8 uM measured at 10 to 95 degreeC by FRET analysis. It is filed as nucleic-acid assay. Conditions: dose 1-8 µM.
Data set [4] concerns Quadruplex DNA. Nature of the data set: Binding affinity to FAM/TAMRA-labelled antiparallel TBA G4 DNA (unknown origin) assessed as thermal stabilization at 1 to 8 uM measured at 10 to 95 degreeC by FRET analysis. The class given is nucleic-acid assay. Particulars: dose 1-8 µM.
For data set [5], the system named is Quadruplex DNA. The data set can be described thus: Binding affinity to FAM/TAMRA-labelled parallel 25ceb G4 DNA (unknown origin) assessed as thermal stabilization at 1 to 8 uM measured at 10 to 95 degreeC by FRET analysis. Particulars: dose 1-8 µM. It is filed as nucleic-acid assay.
Data set [6] has as its system Quadruplex DNA. Nature of the data set: Binding affinity to FAM/TAMRA-labelled parallel c-MYC Pu24T G4 DNA (unknown origin) assessed as thermal stabilization in the presence of 15 equivalents of double stranded DNA by FRET competition assay. The class given is nucleic-acid assay.
In data set [7] the target is Quadruplex DNA. The data set can be described thus: Binding affinity to 5'-Cy5-labelled parallel c-MYC Pu24T G4 DNA (unknown origin) assessed as dissociation constant by MST analysis. The class given is nucleic-acid assay.
For data set [8], the system named is Quadruplex DNA. The data set can be described thus: Binding affinity to FAM/TAMRA-labelled parallel KRAS G4 DNA (unknown origin) assessed as thermal stabilization by measuring change in melting temperature at 2 uM in the presence of 100 equivalents of double stranded DNA by FRET competition assay. The class given is nucleic-acid assay.
Data set [9] has as its system Quadruplex DNA. The data set can be described thus: Binding affinity to FAM/TAMRA-labelled c-KIT2 G4 DNA (unknown origin) assessed as thermal stabilization at 1 to 8 uM measured at 10 to 95 degreeC by FRET analysis. It is filed as nucleic-acid assay. Conditions: dose 1-8 µM.
Data set [10] relates to Quadruplex DNA. Nature of the data set: Binding affinity to parallel c-MYC Pu24T G4 DNA (unknown origin) assessed as thermal stabilization by measuring change in melting temperature at 5 uM measured at 1:1 DNA to ligand ratio by CD spectra analysis. It is filed as nucleic-acid assay.
Data set [11] concerns Quadruplex DNA. Nature of the data set: Binding affinity to FAM/TAMRA-labelled c-KIT1 G4 DNA (unknown origin) assessed as thermal stabilization at 1 to 8 uM measured at 10 to 95 degreeC by FRET analysis. It is filed as nucleic-acid assay. Particulars: dose 1-8 µM.
Data set [12] concerns Quadruplex DNA. The data set can be described thus: Binding affinity to FAM/TAMRA-labelled c-MYC Pu22 G4 DNA (unknown origin) assessed as thermal stabilization at 1 to 8 uM measured at 10 to 95 degreeC by FRET analysis. Conditions: dose 1-8 µM. The class given is nucleic-acid assay.
Data set [13] concerns Quadruplex DNA. The data set can be described thus: Binding affinity to FAM/TAMRA-labelled parallel c-MYC Pu24T G4 DNA (unknown origin) assessed as thermal stabilization by measuring change in melting temperature at 2 uM in the presence of 100 equivalents of double stranded DNA by FRET competition assay. It is filed as nucleic-acid assay.
Data set [14] concerns Quadruplex DNA. The data set can be described thus: Binding affinity to FAM/TAMRA-labelled antiparallel Bom17 G4 DNA (unknown origin) assessed as thermal stabilization at 1 to 8 uM measured at 10 to 95 degreeC by FRET analysis. Conditions: dose 1-8 µM. The class given is nucleic-acid assay.
In data set [15] the test system is Quadruplex DNA. The data set can be described thus: Binding affinity to parallel c-MYC Pu24T G4 DNA (unknown origin) assessed as change in topology at 5 uM by CD spectra analysis. The class given is nucleic-acid assay.
In data set [16] the test system is Quadruplex DNA. The data set can be described thus: Binding affinity to FAM/TAMRA-labelled parallel KRAS G4 DNA (unknown origin) assessed as thermal stabilization in the presence of 15 equivalents of double stranded DNA by FRET competition assay. It is filed as nucleic-acid assay.
Data set [17] can be described thus: Cytotoxicity against wildtype C57BL/6J mouse cancer activated fibroblast cells assessed as inhibition of cell growth incubated for 5 days by resazurin dye based fluorescence microscopic analysis. The class given is toxicity.
Data set [18] in a line: Antitumor activity against KPC mouse pancreatic cancer organoid expressing lentiviral modified GFP co-cultured with WT C57BL/6J mouse pancreatic stellate cells expressing mKate2 assessed as inhibition of cell growth incubated for 5 days by resazurin dye based fluorescence microscopic analysis. It is filed as functional, tissue-based. Particulars: 120 h.

In the case of `Cc1cc(NCCCN2CCNCC2)nc(Nc2nc(C)c3ccc4c(c3n2)CCCC4)n1`, the result with Quadruplex DNA [1] was Active. Further, the outcome with dsDNA was inactive.

As to `Cc1cc(NCCN2CCOCC2)nc(Nc2nc(C)c3ccc4c(c3n2)CCC4)n1`, in the data set with dsDNA, the result was inactive.

Take `CCOC(=O)CCN1CCN(c2cc(C)nc(Nc3nc(C)c4ccc5c(c4n3)CCCC5)n2)CC1`: the result with Quadruplex DNA [2], with Quadruplex DNA [1] and with dsDNA was inactive.

As to `Cc1cc(NCCCN2CCN(C)CC2)nc(Nc2nc(C)c3ccc4c(c3n2)CCCC4)n1`, the result in the data set with Quadruplex DNA [3], in the data set on Quadruplex DNA [6], in the data set with Quadruplex DNA [9], with Quadruplex DNA [1], in the data set on Quadruplex DNA [11] and in the data set on Quadruplex DNA [12] was Active. Besides, the outcome in the data set with Quadruplex DNA [16] was Active. In addition, the result with Quadruplex DNA [4], with Quadruplex DNA [5], with dsDNA, in the data set with Quadruplex DNA [14] and in the data set on Quadruplex DNA [15] was inactive. Further, the Kd on Quadruplex DNA [7] was 280 nM. Further, the ΔTm in the data set on Quadruplex DNA [8] was 10 °C; with Quadruplex DNA [10], 6 °C; with Quadruplex DNA [13], 7 °C.

As for `Cc1cc(NCCN2CCOCC2)nc(Nc2nc(C)c3ccc4c(c3n2)CCCC4)n1`, in the data set on dsDNA, the outcome was inactive.

With `CCN(CC)CCNc1cc(C)nc(Nc2nc(C)c3ccc4c(c3n2)CCCC4)n1`, the outcome with Quadruplex DNA [1] was Active. For the same compound, the outcome in the data set with dsDNA was inactive.

As for `Cc1cc(NCCCN2CCCC2)nc(Nc2nc(C)c3ccc4c(c3n2)CCCC4)n1`, the outcome with Quadruplex DNA [3], in the data set on Quadruplex DNA [6], in the data set on Quadruplex DNA [9], in the data set on Quadruplex DNA [1], in the data set on Quadruplex DNA [11] and in the data set with Quadruplex DNA [12] was Active. Besides, the result in the data set with Quadruplex DNA [16] was Active. Further, the result in the data set with Quadruplex DNA [4], with Quadruplex DNA [5], in the data set on dsDNA, with Quadruplex DNA [14] and in the data set on Quadruplex DNA [15] was inactive. In addition, the Kd on Quadruplex DNA [7] was 245 nM. Moreover, the shift in melting temperature (ΔTm) in the data set with Quadruplex DNA [8] was determined as 10 °C; with Quadruplex DNA [10], 8 °C; in the data set with Quadruplex DNA [13], 7 °C.

For the compound `Cc1cc(N2CCOCC2)nc(Nc2nc(C)c3ccc4c(c3n2)CCCC4)n1`, the outcome in the data set with dsDNA was inactive.

Consider `Cc1cc(N2CCN(C)CC2)nc(Nc2nc(C)c3ccc4c(c3n2)CCCC4)n1`, for which, in the data set with Quadruplex DNA [1], the result was Active. The outcome in the data set with dsDNA was inactive.

In the case of `CCOC(=O)CCN1CCN(c2cc(C)nc(Nc3nc(C)c4ccc5c(c4n3)CCC5)n2)CC1`, the result in the data set on Quadruplex DNA [2], with Quadruplex DNA [1] and with dsDNA was inactive.

For the compound `Cc1cc(N2CCN(C(=O)OC(C)(C)C)CC2)nc(Nc2nc(C)c3ccc4c(c3n2)CCC4)n1`, the outcome with Quadruplex DNA [2], with Quadruplex DNA [1] and with dsDNA was inactive.

Turning to `Cc1cc(N2CCOCC2)nc(Nc2nc(C)c3ccc4c(c3n2)CCC4)n1`, in the data set with dsDNA, the outcome was inactive.

As to `Cc1cc(NCCCN)nc(Nc2nc(C)c3ccc4c(c3n2)CCCC4)n1`, the result in the data set on Quadruplex DNA [1] was Active. Moreover, in the data set on dsDNA, the result was inactive.

For `Cc1cc(N2CCNCC2)nc(Nc2nc(C)c3ccc4c(c3n2)CCC4)n1`, the outcome with Quadruplex DNA [2] and in the data set with Quadruplex DNA [1] was Active. Also, in the data set on dsDNA, the outcome was inactive.

Regarding `Cc1cc(N2CCNCC2)nc(Nc2nc(C)c3ccc4c(c3n2)CCCC4)n1`, the outcome in the data set with Quadruplex DNA [2] and in the data set with Quadruplex DNA [1] was Active. Also, the result in the data set on dsDNA was inactive.

Consider `CCN(CC)c1cc(C)nc(Nc2nc(C)c3ccc4c(c3n2)CCCC4)n1`, for which the outcome in the data set on Quadruplex DNA [1] was Active. Further, the outcome with dsDNA was inactive.

In the case of `Cc1cc(N(C)C)nc(Nc2nc(C)c3ccc4c(c3n2)CCCC4)n1`, the result with Quadruplex DNA [1] was Active. The outcome in the data set on dsDNA was inactive.

Take `CCN(CC)c1cc(C)nc(Nc2nc(C)c3ccc4c(c3n2)CCC4)n1`: the result with dsDNA was inactive.

`Cc1cc(N2CCN(C(=O)OC(C)(C)C)CC2)nc(Nc2nc(C)c3ccc4c(c3n2)CCCC4)n1`: the result in the data set on Quadruplex DNA [2], with Quadruplex DNA [1] and with dsDNA was inactive.

On to `Cc1cc(N2CCN(c3ncccn3)CC2)nc(Nc2nc(C)c3ccc4c(c3n2)CCCC4)n1`, for which the outcome with Quadruplex DNA [2], with Quadruplex DNA [1] and in the data set with dsDNA was inactive.

With `Cc1cc(NCCN2CCNCC2)nc(Nc2nc(C)c3ccc4c(c3n2)CCCC4)n1`, in the data set on Quadruplex DNA [1], the outcome was Active. Further, the outcome in the data set with dsDNA was inactive.

For `Cc1cc(NCCCN2CCCCC2)nc(Nc2nc(C)c3ccc4c(c3n2)CCCC4)n1`, the result in the data set on Quadruplex DNA [3], in the data set with Quadruplex DNA [6], in the data set on Quadruplex DNA [9], with Quadruplex DNA [1], with Quadruplex DNA [11] and with Quadruplex DNA [12] was Active. Besides, the result in the data set on Quadruplex DNA [16] was Active. Moreover, the outcome in the data set with Quadruplex DNA [4], with Quadruplex DNA [5], in the data set on dsDNA, in the data set on Quadruplex DNA [14] and in the data set with Quadruplex DNA [15] was inactive. Besides, at Quadruplex DNA [7], the Kd was found to be 175 nM. For the same compound, the results for the ΔTm with Quadruplex DNA [8], with Quadruplex DNA [10] and in the data set with Quadruplex DNA [13] were 10 °C, 5 °C and 7 °C, respectively.

Consider `Cc1cc(NCCN2CCN(C)CC2)nc(Nc2nc(C)c3ccc4c(c3n2)CCCC4)n1`, for which the outcome in the data set on Quadruplex DNA [2] and in the data set with Quadruplex DNA [1] was Active. In addition, in the data set with dsDNA, the result was inactive.

As to `CCN(CC)CCCCCNc1cc(C)nc(Nc2nc(C)c3ccc4c(c3n2)CCCC4)n1`, the outcome with Quadruplex DNA [1] was Active.

With `CCN(CC)CCCNc1cc(C)nc(Nc2nc(C)c3ccc4c(c3n2)CCCC4)n1`, the outcome in the data set on Quadruplex DNA [3], in the data set on Quadruplex DNA [6], in the data set with Quadruplex DNA [9], with Quadruplex DNA [1], in the data set with Quadruplex DNA [11] and with Quadruplex DNA [12] was Active. Further, in the data set on Quadruplex DNA [16], the outcome was Active. In addition, the outcome with Quadruplex DNA [4], in the data set with Quadruplex DNA [5], in the data set with dsDNA, with Quadruplex DNA [14] and in the data set with Quadruplex DNA [15] was inactive. The dissociation constant (Kd) at Quadruplex DNA [7] is 230 nM. Also, the thermal shift (ΔTm) in the data set with Quadruplex DNA [8] was determined as 10 °C; with Quadruplex DNA [10], 7 °C; with Quadruplex DNA [13], 7 °C.

In the case of `Cc1cc(N2CCN(c3ncccn3)CC2)nc(Nc2nc(C)c3ccc4c(c3n2)CCC4)n1`, the result in the data set on Quadruplex DNA [2], in the data set with Quadruplex DNA [1] and with dsDNA was inactive.

In the case of `Cc1cc(NCCN2CCN(C)CC2)nc(Nc2nc(C)c3ccc4c(c3n2)CCC4)n1`, the result in the data set on Quadruplex DNA [2] and in the data set with Quadruplex DNA [1] was Active. Besides, the IC50 at 5 days in data set [17] was above 500 nM. In the data set on dsDNA, the result was inactive. Further, the IC50 in [18] amounted to 547 nM.
